{"source": "patent US9289505B2", "about": "“Compositions and methods for delivering nucleic acid molecules and treating cancer” (Rutgers, The State University of New Jersey, priority 2010, dated 2016)", "key": {"[1]": {"system": "subcutaneous tumor xenografts of human A549 cancer cells", "assay": "Antitumor activity in subcutaneous A549 xenografts", "conditions": "intratumoral 3 times within 10 days", "procedure": "NCR nude mice (female, 6 weeks, 20 g) were purchased from Taconic Farms, Inc. (Germantown, N.Y.). […] Briefly, A549 human cancer cells transfected with luciferase (5×10^6) were subcutaneously transplanted into the flanks of female athymic nu/nu mice. According to the approved institutional animal use protocol, the tumors were measured by a caliper every other day and their volumes were calculated as d^2×D/2 where d and D are the shortest and longest diameter of the tumor in mm, respectively. When the tumor reached a mean size of 50 mm^3, mice were divided into seven groups and injected intratumorally 3 times within 10 days with 150 μL of the following formulations: (1) saline (control); (2) free non-bound LHRH; (3) free non-bound siRNA; (4) free non-bound CIS; (5) Mixture of CIS and SPIO-PPI G5; (6) Mixture of CIS and SPIO-PPI G5-siRNA; and (7) Mixture of CIS and SPIO-PPI G5-siRNA-PEG-LHRH complexes. The concentrations of CIS and siRNA in the formulations were 2.5 mg/kg and 30 μM, respectively. Changes in tumor size were monitored by real-time bioluminescence in anesthetized animals by IVIS imaging system (Xenogen Bioscience, Cranbury, N.J.)."}, "BCL2 mRNA": {"system": "BCL2 mRNA", "assay": "BCL2 gene expression in subcutaneous tumors, quantitative RT-PCR", "type": "in vivo, human", "conditions": "treated 8 times within 30 days, vs untreated control", "description": "(§1) The expression of MDR1 and BCL2 genes was measured using a quantitative RT-PCR as previously described (Pakunlu et al. (2006) J. Control. Rel., 114:153-162). Gene expression was calculated as a percent of internal standard (β2-microglobulin). To identify the presence of BCL2, P-glycoprotein and Caspase 3 (CASP3) proteins, the immunohistochemical staining of paraffin-embedded tumor tissue slides was carried out. For BCL2 and CASP3, slides were deparaffinized in xylene for 5 min followed by progressive rehydration in 100%, 95%, 70% and 50% ethanol for 3 minutes during each step. Endogenous peroxidase activity was blocked by incubating slides in 3% H2O2 solution in methanol at room temperature for 10 minutes and washing in 300 ml PBS two times for 5 minutes. Slides then were stained with anti-mouse monoclonal antibodies for BCL2 conjugated with FITC (1:200 dilution; BioLegend, catalog number 633502, San Diego, Calif.) and for CASP3 conjugated with Alexa Flour 647 (1:200 dilution; BioLegend, catalog number 622702, San Diego, Calif.) by incubating for an hour, washed in 300 ml PBS two times for 5 minutes and analyzed by fluorescence microscopy. To identify the expression of P-glycoprotein, after deparaffinization and rehydration, the slides were stained using Vector® M.O.M. Immunodetection Kit (Vector Laboratories, Inc., Burlingame, Calif.). Mouse monoclonal antibody to P-glycoprotein (ab3366, 1:40 dilution) obtained from Abcam (Cambridge, Mass.) was used as primary antibody for the detection of P-glycoprotein. Biotinylated anti-mouse IgG Reagent (1:250 dilution, Vector Laboratories, Inc., Burlingame, Calif.) and HSP-Streptavidine Detection System (1:500 dilution, Vector Laboratories, Inc., Burlingame, Calif.) in combination with DAB substrate kit (Vector Laboratories, Inc., Burlingame, Calif.) for peroxidase were used for visualization. After staining, the slides were examined by light microscopy and photographed."}, "Caspase 3": {"system": "Caspase 3", "assay": "Immunohistochemical staining of tumor tissue for Caspase 3", "type": "in vivo, human", "conditions": "tumor tissue sections", "description": "as §1, with “Mouse monoclonal antibody to P-glycoprotein (ab3366, 1:40 dilution) obtained from Abcam (Cambridge, Mass.) was used as primary antibody for the detection of P-glycoprotein. Biotinylated anti-mouse IgG Reagent (1:250 dilution, Vector Laboratories, Inc., Burlingame, Calif.) and HSP-Streptavidine Detection System (1:500 dilution, Vector Laboratories, Inc., Burlingame, Calif.) in combination with DAB substrate kit (Vector Laboratories, Inc., Burlingame, Calif.) for peroxidase were used for visualization. After staining, the slides were examined by light microscopy and photographed.” left out"}, "MDR1 mRNA": {"system": "MDR1 mRNA", "assay": "MDR1 gene expression in subcutaneous tumors, quantitative RT-PCR", "type": "in vivo, human", "conditions": "treated 8 times within 30 days, vs untreated control", "description": "as §1"}, "[2]": {"system": "tumor and malignant ascites", "assay": "Apoptosis induction in tumor and malignant ascites (cell death detection ELISA)", "type": "in vivo, mice", "conditions": "histone-complexed DNA fragments", "description": "(§2) Induction of apoptosis was analyzed by the measurement of the enrichment of histone-associated DNA fragments (mono- and oligo-nucleosomes) in homogenates of the tumor, malignant ascites and other organs (liver, kidney, lung, heart and brain) using anti-histone and anti-DNA antibodies by a cell death detection ELISA Plus kit (Roche, Nutley, N.J.) as previously described (Pakunlu et al. (2004) Cancer Res., 64:6214-6224; Dharap et al. (2005) Proc. Natl. Acad. Sci., 102:12962-12967; Dharap et al. (2003) Pharm. Res., 20:889-896)."}, "[3]": {"assay": "Maximum tolerated dose from animal weight change", "type": "in vivo", "conditions": "mice; estimated from animal weight change after injection of increasing doses"}, "[4]": {"system": "xenografts of human malignant ascites (ovarian carcinoma)", "assay": "In vivo antitumor activity in mice bearing xenografts of human malignant ascites", "conditions": "intraperitoneal treatment max 8 times within 30 days; DOX 2.5 mg/kg, CIS 2.5 mg/kg", "description": "All mice received cancer cells from the same patient. When the tumors reached a size of about 0.3 cm^3 (15-20 days after transplantation), mice were treated intraperitoneally with the following formulations: (1) Saline (untreated control); (2) Liposomes (Lip); (3) LHRH; (4) DOX; (5) Lip-DOX; (6) Lip-DOX-BCL2 ASO; (7) Lip-DOX-MDR1 ASO; (8) Lip-DOX-BCL2-MDR1 ASO; (9) LHRH-Lip-DOX-BCL2-MDR1 ASO; (10) CIS; (11) Lip-CIS; (12) Lip-CIS-BCL2 ASO; (13) Lip-CIS-MDR1 ASO; (14) Lip-CIS-BCL2-MDR1 ASO; (15) LHRH-Lip-CIS-BCL2-MDR1 ASO; (16) DOX+CIS; (17) Lip-DOX+Lip-CIS; (18) Lip-DOX-BCL2 ASO+Lip-CIS-BCL2 ASO; (19) Lip-DOX-MDR1 ASO+Lip-CIS-MDR1 ASO; (20) Lip-DOX-BCL2-MDR1 ASO+Lip-CIS-BCL2-MDR1 ASO; (21) LHRH-Lip-DOX-BCL2-MDR1 ASO+LHRH-Lip-CIS-BCL2-MDR1 ASO. […] The animals were treated maximum 8 times over four weeks and the development of primary tumor and intraperitoneal metastases was monitored by fluorescent IVIS (Xenogen, Alameda, Calif.) and ultrasound Vevo 2100 (VisualSonics, Toronto, Canada) imaging systems. To initiate bioluminescence of cancer cells, 1× substrate/reaction buffer (Clontech, Mountain View, Calif.) was diluted 1:20 with DPBS and 100 μl of the solution was injected into each mouse. The bioluminescent images were taken 10 minutes after the injection of the substrate. The size of primary tumor was measured by a caliper. At the end of the experiments, tumors and ascites were excised and their mass was measured. Animal weight was evaluated every day during the treatment period. Changes in tumor size were used as an overall marker for antitumor activity."}, "[5]": {"system": "healthy organs (liver, kidney, spleen, heart, lung and brain)", "assay": "Apoptosis induction in healthy organs (cell death detection ELISA)", "type": "in vivo, mice", "description": "as §2"}, "BCL2 gene": {"system": "BCL2 gene", "assay": "BCL2 gene expression, RT-PCR", "type": "cell-based, human", "conditions": "A2780 cells, BCL2 siRNA 1 μM delivered by the named carrier, 24 hours", "description": "Reverse transcription-polymerase chain reaction (RT-PCR) was used for the analysis of gene expression (Pakunlu et al. (2004) Cancer Res., 64:6214-6224). […] After 24 hours, total cellular RNA was isolated using an RNeasy kit (Qiagen, Valencia, Calif.). […] After synthesis, the reaction mixture was immediately subjected to polymerase chain reaction (PCR), which was carried out using […] System 2400 (Perkin-Elmer, Shelton, Conn.). β2-microglobulin (β2-m) was used as an internal standard. The following pairs of primers were used: BCL2: [NT] (sense; SEQ ID NO: 6), [NT] (antisense; SEQ ID NO: 7); β2-m (internal […] (sense; SEQ ID NO: 8), [NT] (antisense; SEQ ID NO: 9). PCR regimen was as follows: 94° C. for 5 minutes; 94° C. for 1 minute, 55° C. for 1 minute, and 72° C. for 1 minute for 41 cycles; and 60° C. for 10 minutes. PCR products were separated in 4% NuSieve 3:1 Reliant-agarose gels (Lonza, Basel, Switzerland) in 1× Tris-borate EDTA buffer [0.089 mol/L Tris-borate, 0.002 mol/L EDTA (pH 8.3); Research Organics Inc., Cleveland, Ohio] by submarine electrophoresis. The gels were stained with EtBr and digitally photographed."}}, "note": "Non-standard residues stand in square brackets, D forms with d. No end group written: not given here. d = 2'-deoxy (DNA); r = 2'-OH (RNA)", "data": [{"molecule": "N.N.[Cl][Pt][Cl]", "note": "[CIS, cisplatin]", "values": [{"measurement": "decrease of tumor volume/growth compared with untreated control", "setting": "[1]; last day of treatment, CIS 2.5 mg/kg, siRNA 30 μM", "result": 36.2, "unit": "%"}, {"measurement": "expression of BCL2 gene", "setting": "BCL2 mRNA", "result": "statistically significant overexpression"}, {"measurement": "expression/activation of caspase 3", "setting": "Caspase 3", "result": "activated caspase 3"}, {"measurement": "expression of MDR1 gene", "setting": "MDR1 mRNA", "result": "statistically significant overexpression"}, {"measurement": "apoptosis induction in tumor and malignant ascites", "setting": "[2]", "result": "induced apoptosis"}, {"measurement": "maximum tolerated dose", "setting": "[3]", "result": 2.5, "unit": "mg/kg"}, {"measurement": "development and mass of intraperitoneal metastases and malignant ascites", "setting": "[4]", "result": "more effective in limiting the growth of both primary tumor and malignant ascites when compared to corresponding DOX formulations"}, {"measurement": "growth of primary subcutaneous tumor (volume)", "setting": "[4]", "result": "more effective in limiting the growth of both primary tumor and malignant ascites when compared to corresponding DOX formulations"}]}, {"molecule": "COc1cccc2c1C(=O)c1c(O)c3c(c(O)c1C2=O)C[C@@](O)(C(=O)CO)C[C@@H]3O[C@H]1C[C@H](N)[C@H](O)[C@H](C)O1", "note": "[DOX, doxorubicin]", "values": [{"measurement": "expression of BCL2 gene", "setting": "BCL2 mRNA", "result": "statistically significant overexpression"}, {"measurement": "expression/activation of caspase 3", "setting": "Caspase 3", "result": "activated caspase 3"}, {"measurement": "expression of MDR1 gene", "setting": "MDR1 mRNA", "result": "statistically significant overexpression"}, {"measurement": "apoptosis induction in tumor and malignant ascites", "setting": "[2]", "result": "induced apoptosis"}, {"measurement": "maximum tolerated dose", "setting": "[3]", "result": 2.5, "unit": "mg/kg"}, {"measurement": "growth of primary subcutaneous tumor (volume)", "setting": "[4]", "result": "slowed down the growth"}]}, {"molecule": "Lys6-des-Gly10-Pro9-ethylamide (Gln-His-Trp-Ser-Tyr-DLys-Leu-Arg-Pro-NH-Et; SEQ ID NO: 3) (QHWSY[dK]LRP-NHEt) [LHRH, synthetic analog of Luteinizing Hormone-Releasing Hormone, tumor targeting moiety]", "values": [{"measurement": "tumor growth / antitumor activity", "setting": "[1]", "result": "did not significantly influence the growth of the tumor"}, {"measurement": "expression of BCL2 gene", "setting": "BCL2 mRNA", "result": "did not change significantly"}, {"measurement": "expression of MDR1 gene", "setting": "MDR1 mRNA", "result": "did not change significantly"}, {"measurement": "apoptosis induction in tumor and malignant ascites", "setting": "[2]", "result": "did not induce detectable levels of apoptosis"}, {"measurement": "apoptosis induction in healthy organs", "setting": "[5]", "result": "did not induce detectable levels of apoptosis"}, {"measurement": "development and mass of intraperitoneal metastases and malignant ascites", "setting": "[4]", "result": "did not influence"}, {"measurement": "growth of primary subcutaneous tumor (volume)", "setting": "[4]", "result": "did not influence"}]}, {"molecule": "sense strand, 5′-CCU CGG GCU GUG CUC UUU U-dTdT-3′, SEQ ID NO: 10; antisense strand, 5′-AAA AGA GCA CAG CCC GAG G-dTdT-3′, SEQ ID NO: 11 (sense CCUCGGGCUGUGCUCUUUUTT; antisense AAAAGAGCACAGCCCGAGGTT; sugars from the 5' end r19 d2, backbone not given here) [naked non-specific siRNA, non-specific siRNA used as a negative control]", "values": [{"measurement": "expression of targeted BCL2 gene, from control value", "setting": "BCL2 gene", "result": "did not influenced"}]}]}
